31 molecules from patent US5714363A, “Deacetoxycephalosporin C hydroxylase” (priority 1992, dated 1998) can be followed below.

Structures can show the parent of a compound that is named as a salt. Where two headings read alike, the source gives them in different places.

Data set [1] concerns the target T1, DAOC hydroxylase (Streptomyces clavuligerus, UniProt P42220).
T1 sequence (P42220 1-318): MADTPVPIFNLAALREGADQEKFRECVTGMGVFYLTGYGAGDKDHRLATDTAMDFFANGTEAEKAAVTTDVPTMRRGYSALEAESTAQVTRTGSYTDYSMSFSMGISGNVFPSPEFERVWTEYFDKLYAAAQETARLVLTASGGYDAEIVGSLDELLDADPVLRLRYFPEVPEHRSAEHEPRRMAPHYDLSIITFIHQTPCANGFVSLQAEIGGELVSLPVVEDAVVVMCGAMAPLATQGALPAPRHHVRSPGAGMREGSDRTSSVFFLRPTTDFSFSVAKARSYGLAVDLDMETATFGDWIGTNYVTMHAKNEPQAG
Description: DAOC hydroxylase activity assay (DAC formation from DAOC, HPLC at 260 nm). Set-up: The highly purified native enzyme (92% purity) has a molecular weight of 35,000 dalton; endogenous in cells; host or cells: Streptomyces clavuligerus cells (native producer; NRRL 18491 is named as preferred strain), enzyme purified from cell-free extract. Particulars: for drop of maximum catalytic activity when not present: external ferrous ion, DTT and ascorbate both absent; for stimulation of catalytic activity: with Fe2+, α-ketoglutarate and O2; for replacement of ferrous ion for enzymatic activity: ion in place of Fe2+; for Relative Activity (%): no additive = 100; for reduction in enzyme activity: substitution of MOPS buffer at optimal pH. The format is biochemical. Here is the method:
(§1) The activity of the DAOC hydroxylase is determined throughout the process by the following assay method. The hydroxylase activity was determined by monitoring DAC formation from DAOC at 260 nm with HPLC as described by Dotzlaf, J. E., and Yeh, W.-K. (1987) J. Bacteriol., 169, 1611-1618. […] The enzymatic reaction is initiated by adding the DAOC and the reaction is conducted for 20 minutes at 29° C. DAC formation is linear with reaction time for up to 40 minutes. One unit of enzyme activity is defined as the amount of hydroxylase required to cause formation of one μmol of DAC per minute from DAOC under the above-described assay conditions.
The specific activity of the hydroxylase is defined as units per milligram of protein.

The target of data set [2] is T1, DAOC hydroxylase. The data set is described as follows: Substrate specificity of purified DAOC hydroxylase. The format is biochemical. The arrangement: The highly purified native enzyme (92% purity) has a molecular weight of 35,000 dalton; endogenous in cells; host or cells: Streptomyces clavuligerus cells (native producer; NRRL 18491 is named as preferred strain), enzyme purified from cell-free extract. Particulars: for Sp. Activity (mU/mg) / Relative Activity (%): compound as substrate; for Relative Activity (%): relative to DAOC = 100; for effectiveness as substrate: conditions for optimal catalysis; for Vmax (Percent Catalytic Activities, relative Vmax): relative to DAOC to DAC = 100, substrate of the reaction. Here is the method:
Several compounds were evaluated as substrates for the purified enzyme to determine its substrate specificity. The compounds evaluated and the results are shown below in TABLE 4. The results were obtained by EPLC analysis.
as §1

For data set [3], the target named is T1, DAOC hydroxylase. The data set is described as follows: Stoichiometry of DAOC to DAC conversion. The format is biochemical. The arrangement: The highly purified native enzyme (92% purity) has a molecular weight of 35,000 dalton; endogenous in cells; host or cells: Streptomyces clavuligerus cells (native producer; NRRL 18491 is named as preferred strain), enzyme purified from cell-free extract. Here is the method: The stoichiometry of the hydroxylase conversion of DAOC to DAC was determined. The molar ratio for DAC-formation/DAOC-disappearance during a 3 h reaction remained in the range of 0.91-1.00 as shown by the plot in FIG. 2. The conversion of DAOC to DAC was only partially complete (58%) under the reaction conditions.

The procedure of data set [4]: The DAOC hydroxylase is recognized as unstable and, accordingly, was difficult to isolate and obtain in a high state of purity from cell-free extracts.
The process of this invention comprises the use of a hydroxylase stabilizing buffer which is used both in the preparation of crude cell-free extracts of the enzyme and during the isolation and purification thereof. The stabilizing buffer, referred to herein as buffer A, comprises 15 mM MOPS buffer, pH 7.3, containing 1 mM uric acid, 1 mM mannitol and 0.1M KCl.

For data set [5], the target named is T1, DAOC hydroxylase. The data set is described as follows: Kinetic parameters of DAOC hydroxylase (Lineweaver-Burk). As for the experimental part: The activity of the DAOC hydroxylase is determined throughout the process by the following assay method. The hydroxylase activity was determined by monitoring DAC formation from DAOC at 260 nm with HPLC as described by Dotzlaf, J. E., and Yeh, W.-K. (1987) J. Bacteriol., 169, 1611-1618. […] The enzymatic reaction is initiated by adding the DAOC and the reaction is conducted for 20 minutes at 29° C. […] One unit of enzyme activity is defined as the amount of hydroxylase required to cause formation of one μmol of DAC per minute from DAOC under the above-described assay conditions.

One may read the half-life as how long it takes for the measured level to halve.

Consider `O[C@H](CS)[C@H](O)CS` (racemic) [DTT, dithiothreitol], for which, at DAOC hydroxylase [1], the “drop of maximum catalytic activity when not present” value is recorded as around 80% and the “stimulation of catalytic activity” value is listed as “stimulated”.

`Nc1ncnc2c1ncn2[C@@H]1O[C@H](COP(=O)(O)OP(=O)(O)OP(=O)(O)O)[C@@H](O)[C@H]1O` [ATP]: the “stimulation of catalytic activity” value on DAOC hydroxylase [1] is “not”.

As for `[Ca+2]` [Ca^2+], the “replacement of ferrous ion for enzymatic activity” value (“replacement of ferrous ion” below) on DAOC hydroxylase [1] was “not replaceable”.

For the molecule `CC1=C(C(=O)O)N2C(=O)[C@@H](NC(=O)CCC[C@@H](N)C(=O)O)[C@H]2CC1` [Carba-DAOC, 1carba(1-dethia)deacetoxycephalosporin C], at DAOC hydroxylase [2], the “Sp. Activity (mU/mg)” value is 3.0 mU/mg, the “Relative Activity (%)” value is recorded as 1.9% and the effectiveness as substrate entry was “did not serve as effective substrates”.

Regarding `[Co+2]` [Co^2+], the “replacement of ferrous ion” value on DAOC hydroxylase [1] was “not replaceable”.

For the molecule `[Cu+2]` [Cu^2+], the “replacement of ferrous ion” value at DAOC hydroxylase [1] was “not replaceable”.

Regarding `CC1=C(C(=O)O)N2C(=O)[C@@H](NC(=O)CCC[C@@H](N)C(=O)O)[C@H]2SC1` [DAOC, deacetoxycephalosporin C], on DAOC hydroxylase [2], the “Sp. Activity (mU/mg)” value amounted to 159.2 mU/mg; the “Relative Activity (%)” value is given as 100%; the “Vmax (Percent Catalytic Activities, relative Vmax)” value was determined as 100%. Moreover, the “conversion of DAOC to DAC” value at DAOC hydroxylase [3] (3 h reaction) is 58%. For the same molecule, at DAOC hydroxylase [3] (during a 3 h reaction), the “molar ratio DAC-formation/DAOC-disappearance” value is reported as 0.91-1.00.

On to `O=C(O)c1cc(SSc2ccc([N+](=O)[O-])c(C(=O)O)c2)ccc1[N+](=O)[O-]` [DTNB, 5,5'-dithiobis2-nitrobenzoic acid], for which the “Relative Activity (%)” value on DAOC hydroxylase [1] (additive 1 mM) was determined as 0%.

For `O=C(O)CN(CCN(CC(=O)O)CC(=O)O)CC(=O)O` [EDTA, ethylenediamine tetraacetic acid], the “Relative Activity (%)” value is recorded as 16% on DAOC hydroxylase [1] (additive 0.05 mM) and 0% on DAOC hydroxylase [1] (additive 0.5 mM).

Take `C=C1CS[C@@H]2[C@H](NC(=O)CCC[C@@H](N)C(=O)O)C(=O)N2C1C(=O)O` (stereo partly drawn) [EMCC, 7β-(D-α-aminoadipamido)-3-exomethylenecepham-4-carboxylic acid]: at DAOC hydroxylase [2], the “Sp. Activity (mU/mg)” value stood at 58.1 mU/mg; the “Relative Activity (%)” value turned out to be 36.5%; the effectiveness as substrate result is “fairly efficient”; the “Vmax (Percent Catalytic Activities, relative Vmax)” value was determined as 37%.

As for `O=S(=O)(O)CCN1CCN(CCO)CC1` [HEPES buffer], the “reduction in enzyme activity” value on DAOC hydroxylase [1] is given as 7%.

As for `O=C(O)CI` [Iodoacetic acid], the “Relative Activity (%)” value at DAOC hydroxylase [1] (additive 1 mM) is 59%.

For the molecule `CC1=C(C(=O)O)N2C(=O)[C@@H](NC(=O)CCC[C@H](N)C(=O)O)[C@H]2SC1` [Iso-DAOC, 7β-(Lα-aminoadipamido)-3-methyl-3-cephem-4-carboxylic acid], at DAOC hydroxylase [2], the “Sp. Activity (mU/mg)” value is recorded as 1.3 mU/mg, the “Relative Activity (%)” value worked out at 0.8% and the effectiveness as substrate entry is “did not serve as effective substrates”.

Take `[Mg+2]` [Mg^2+]: at DAOC hydroxylase [1], the “replacement of ferrous ion” value is “not replaceable”.

Regarding `[Mn+2]` [Mn^2+], the “replacement of ferrous ion” value on DAOC hydroxylase [1] is given as “not replaceable”.

In the case of `CCN1C(=O)C=CC1=O` [NEM, Nethylmaleimide], on DAOC hydroxylase [1] (additive 1 mM), the “Relative Activity (%)” value is given as 24%.

For `[Ni+2]` [Ni^2+], the “replacement of ferrous ion” value on DAOC hydroxylase [1] is “not replaceable”.

Consider `CC1(C)S[C@@H]2[C@H](NC(=O)CCC[C@@H](N)C(=O)O)C(=O)N2[C@H]1C(=O)O` [Penicillin N, penicillin N], for which, on DAOC hydroxylase [2], the effectiveness as substrate result is reported as “weak catalytic activity” and the “Vmax (Percent Catalytic Activities, relative Vmax)” value turned out to be 1.4%.

In the case of `N[C@@H](CCC(=O)N[C@@H](CS)C(=O)NCC(=O)O)C(=O)O` [Reduced glutathione], at DAOC hydroxylase [1], the “stimulation of catalytic activity” value is “as effective”.

For the molecule `NC(CO)(CO)CO` [Tris-HCl buffer], the “reduction in enzyme activity” value at DAOC hydroxylase [1] turned out to be 27%.

As to `[Zn+2]` [Zn^2+], the “replacement of ferrous ion” value on DAOC hydroxylase [1] was “not replaceable”.

On to `O=C1O[C@H]([C@@H](O)CO)C(O)=C1O` [ascorbate], for which, at DAOC hydroxylase [1], the “drop of maximum catalytic activity when not present” value is around 80%.

With `CCO` [ethyl alcohol], the “effect on the stability of the hydroxylase” value in data set [4] is “no effect”.

With `[Fe+3]` [ferric ion], the “replacement of ferrous ion” value at DAOC hydroxylase [1] was “can replace ferrous ion with retention of maximum activity”.

Turning to `[Fe+2]` [ferrous ion], the “enzymatic activity without external Fe2+” value on DAOC hydroxylase [1] (no external Fe2+) was 2 % of maximum. For the same molecule, on DAOC hydroxylase [5] (activator ferrous ion), the “Ka of the hydroxylase” value was determined as 20 µM.

Regarding `c1cnc2c(c1)ccc1cccnc12` [o-Phenanthroline], the “Relative Activity (%)” value on DAOC hydroxylase [1] (additive 0.05 mM) is given as 81%; on DAOC hydroxylase [1] (additive 0.5 mM), 0%.

Turning to `O=S(=O)(F)Cc1ccccc1` [phenylmethylsulfonyl fluoride], in data set [4] (added during preparation of the extracts), the “effect on the stability of the hydroxylase” value is on record as “no effect”.

`[K+]` [potassium]: on DAOC hydroxylase [1], the “replacement of ferrous ion” value is on record as “not replaceable”.

As for `[Na+]` [sodium], the “replacement of ferrous ion” value at DAOC hydroxylase [1] is on record as “not replaceable”.

Turning to `OCCS` [β-Mercaptoethanol], at DAOC hydroxylase [1], the “stimulation of catalytic activity” value is given as “little stimulating effect”.

B1: DAOC hydroxylase: enzyme from Streptomyces clavuligerus converting DAOC to DAC; monomeric, about 35,000 dalton (protein, UniProt P42220 2-318, looked up)
Deacetoxycephalosporin C …: ADTPVPIFNLAALREGADQEKFRECVTGMGVFYLTGYGAGDKDHRLATDTAMDFFANGTEAEKAAVTTDVPTMRRGYSALEAESTAQVTRTGSYTDYSMSFSMGISGNVFPSPEFERVWTEYFDKLYAAAQETARLVLTASGGYDAEIVGSLDELLDADPVLRLRYFPEVPEHRSAEHEPRRMAPHYDLSIITFIHQTPCANGFVSLQAEIGGELVSLPVVEDAVVVMCGAMAPLATQGALPAPRHHVRSPGAGMREGSDRTSSVFFLRPTTDFSFSVAKARSYGLAVDLDMETATFGDWIGTNYVTMHAKNEPQAG
Turning to B1, in the data set with DAOC hydroxylase [5] (DAOC to DAC, optimal reaction conditions), the “Vmax of the hydroxylase” value is reported as 0.45 μM of DAC formed per minute per milligram of protein. In addition, the half-life in data set [4] (crude extract in stabilizing buffer A (15 mM MOPS pH 7.3, 1 mM uric acid, 1 mM mannitol, 0.1M KCl)) was 72 h; in data set [4] (crude extract, 4° C., 15 mM Tris-HCl buffer, pH 7.5), 12 h. The “improvement of half-life over Tris-HCl buffer” value in data set [4] (stabilizing buffer A) was 6 fold.
